For one molecule, Kd results are on record in PMC3814719, “Structure of a bacterial putative acetyltransferase defines the fold of the human O-GlcNAcase C-terminal domain” (Open Biology, 2013).

Molecules are shown by their SMILES.

This test deals with T1, OgpAT (Oceanicola granulosus, UniProt Q2CEE2).
T1 construct: gene OG2516_04134; full-length OgpAT, expressed as GST fusion from pGEX-6P-1 in E. coli BL21(DE3) pLysS, GST cut off with PreScission protease; 206 residues in crystal; monomer; biotinylated for SPR; gene immediately downstream of OgOGA
T1 sequence (Q2CEE2 whole entry, the tested form may be a part): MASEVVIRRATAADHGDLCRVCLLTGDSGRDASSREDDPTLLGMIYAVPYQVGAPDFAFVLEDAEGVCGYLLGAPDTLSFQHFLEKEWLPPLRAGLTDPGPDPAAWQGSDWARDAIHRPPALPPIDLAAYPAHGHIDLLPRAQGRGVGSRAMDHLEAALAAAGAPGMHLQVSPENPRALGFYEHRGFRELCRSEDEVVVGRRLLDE
Description: surface plasmon resonance, biotinylated protein on streptavidin chip, […] equilibrium fit. The conditions noted are these: read-out: OgpAT, wt. The format is binding.

For `CC(=O)SCCNC(=O)CCNC(=O)[C@H](O)C(C)(C)COP(=O)(O)OP(=O)(O)OC[C@H]1O[C@@H](n2cnc3c(N)ncnc32)[C@H](O)[C@@H]1OP(=O)(O)O` [AcCoA], the Kd is 8.3 µM.
